Measurements reported in patent publication US6495336B1, “Oligopeptide derivatives for the electrochemical measurement of protease activity” (Pentapharm AG, priority 2001, dated 2002).

Key:
[1] = target: T1, thrombin (Homo sapiens, UniProt P00734); test: Measurement of the enzymic activity of thrombin in solution (amperometric hydrolysis of substrate); format: biochemical; conditions: substrate c = 0.5 mmol, 1 NIH-U of thrombin, 400 mV, HEPES 50 mM pH 7.4, KCl 0.1 M, 25° C.
T1 construct: purchased Diagnotec Liestal 100-500
Method: 1) A Tacusell PGP201 potentiostat, software VM1, which maintains a constant potential difference between the measuring electrode and reference electrode, is used. The measuring cell used is a glass beaker with a capacity of 25 ml or 1 ml, which can receive the 3 electrodes.
2) A platinum wire with a surface area of 34 mm^2 or 3 mm^2 is used as measuring electrode.
3) A calomel electrode (SCE) is used as reference electrode at which the potentials are measured.
4) The auxiliary electrode consists of platinum wire and serves to ensure passage of the current.
5) The measured solution is stirred by a magnetic stirrer for homogenization.
Thrombin concentration: 0.5, 1.0, 2 NIH-U/ml
Buffer: HEPES buffer, 50 mM, pH 7.4, KCl, 0.1 M
For example a 0.5 mM solution of the substrate Tos-Gly-Pro-Arg 3-chloro-4-hydroxyanilide×AcOH in HEPES buffer is prepared, as is a stock solution of thrombin with 100 NIH-U/1 ml in distilled water. 1 ml of substrate solution (c=0.5 mmol) is introduced into a 1 ml measuring cell provided with 3 electrodes of the Tacusell PGP201 potentiostat, software VM1. A cycle is allowed to run potentiodynamically from −30 to 500 mV to record the zero value (10 min). For the measurement, 10 µl of thrombin solution (final concentration 1.0 NIH-U/ml) is placed in the measuring cell, […], after mixing for 30 sec, the current is recorded potentiostatically over a time of 10 min. The measurements are carried out as duplicate determination.
FIGS. 5, 6 and 7 (μA cm^2/min, T=0-5 min, at 400 mV) show the linear cleavage rates by means of 3 substrates with different electroactive groups at a thrombin concentration of 1 NIH-U and substrate concentration c=0.5 mmol: […]

[2] = Cyclic voltammogram of the substrate (electroactivity); format: physicochemical; conditions: c=0.5 mM in HEPES buffer, pH=7.4, 0.1 M KCl; -30 to 600 mV; 1 ml cell, electrode 3 mm^2
Text: […] A measurement cycle can take place when the basic current affords sufficient accuracy. The basic current is subtracted from the measurement during the hydrolysis of a substrate or the recording of a profile of an electroactive compound.
2) Evaluation of the results: the currents recorded in the linearity range are, after subtraction of the basic current at the relevant potential, proportional to the concentration of the electroactive species during the hydrolysis. The liberated electroactive species, which is cleaved off by the substrate, is likewise proportional to the enzyme concentration employed.
3) A platinum electrode is used to record the cyclic voltammograms at concentrations of 0.25 mmol, 0.5 mmol and 1.0 mmol. HEPES, 50 mmol at pH 7.4, is used as buffer. FIGS. 1 and 2 show typical cyclic reversible plots for 4-amino-2-chlorophenol and 5-amino-8-hydroxyquinoline: recorded from −30 to 600 mV at 500 mV/min. These amperogenic substances preferably show a linear dependence of the current strength on the concentration at low potential in the region of 300 mV, with a high current strength. The system is in equilibrium in this case. A higher voltage of >400 mV is undesired because of interference with possible constituents in the blood, for example paracetamol. […]

Standardization: current resulting from hydrolysis of the substrate with thrombin, per cm^2 of electrode surface area in one minute [1]	Electroactivity of the uncleaved substrate at 400 mV [2]	Substance
3 μA/cm^2 of electrode		H-(D)-Chg-Gly-Arg 3-chloro-4-hydroxyanilide×2 TFA
0.5 μA/cm^2 of electrode		Z-gly-pro-arg 2-chloro-4-hydroxyanilide×HCl
2 μA/cm^2 of electrode	no electroactivity	Tos-Gly-Pro-Arg 3-chloro-4-hydroxyanilide×AcOH
